Here are results for three compounds from BindingDB's records for doi:10.1021/acs.jmedchem.7b01231 (Dongguk University, 2017).

The target of this test is Hypoxia-inducible factor 1-alpha (Homo sapiens, UniProt Q16665). As to the kind of experiment: ChEBML_1681384. The protocol: Inhibition of HIF-1alpha in human HCT116 cells incubated for 12 hrs under hypoxic conditions by HRE dual-luciferase reporter gene assay
Hypoxia-inducible factor 1-alpha, sequence (Q16665 whole entry): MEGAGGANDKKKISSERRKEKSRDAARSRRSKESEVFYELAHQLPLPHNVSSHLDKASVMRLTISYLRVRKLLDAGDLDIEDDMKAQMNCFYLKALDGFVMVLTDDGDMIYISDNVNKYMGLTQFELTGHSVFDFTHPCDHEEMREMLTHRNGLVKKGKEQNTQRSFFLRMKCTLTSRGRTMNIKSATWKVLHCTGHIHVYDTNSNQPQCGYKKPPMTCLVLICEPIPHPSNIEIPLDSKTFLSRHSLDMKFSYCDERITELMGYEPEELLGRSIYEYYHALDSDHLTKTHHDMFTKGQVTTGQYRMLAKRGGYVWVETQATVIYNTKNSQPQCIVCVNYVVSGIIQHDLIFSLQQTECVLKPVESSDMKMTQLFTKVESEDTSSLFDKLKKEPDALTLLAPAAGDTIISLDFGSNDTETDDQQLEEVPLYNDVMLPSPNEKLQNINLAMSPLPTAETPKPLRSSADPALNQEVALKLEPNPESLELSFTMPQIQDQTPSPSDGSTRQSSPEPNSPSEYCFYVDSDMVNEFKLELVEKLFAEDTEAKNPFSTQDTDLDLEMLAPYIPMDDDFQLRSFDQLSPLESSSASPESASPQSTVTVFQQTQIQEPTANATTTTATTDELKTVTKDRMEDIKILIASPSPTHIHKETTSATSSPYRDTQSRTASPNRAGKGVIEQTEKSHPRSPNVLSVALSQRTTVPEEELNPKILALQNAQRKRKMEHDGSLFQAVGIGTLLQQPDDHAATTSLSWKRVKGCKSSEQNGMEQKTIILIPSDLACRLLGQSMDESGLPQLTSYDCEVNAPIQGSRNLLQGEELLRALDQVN
With `COC(=O)c1ccc(OC)c(NC(=O)COc2ccc(C(C)(C)CC(C)(C)C)cc2)c1`, the IC50 is over 40 µM.
Take `CCCCCc1ccc(OCC(=O)Nc2cccc(C(=O)OC)c2)cc1`: the IC50 is over 40 µM.
The figure for `COC(=O)c1cccc(NC(=O)CCCOc2ccc(C(C)(C)CC(C)(C)C)cc2)c1` is 1.4 µM.

Broadly, the IC50 is the concentration that inhibits the measured activity by half. Read a low IC50 as inhibition by little substance.
